Read-outs that look alike come from different tables or passages of the source. *1 amine or outer side, *2 acyl side, *3 side chain or, on linkers, in order; H or OH if unused. Where a SMILES comes first, the peptide text is derived from it. Bridges are numbered along the chain shown (N, C = ends). [ ]: non-standard residue; d: D form. The star is where a group is joined. hPhe(3,5-F2-4-CF3) = N[C@@H](CCc1cc(F)c(C(F)(F)F)c(F)c1)C(=O)O; hPhe(3-Cl-4-CF3) = N[C@@H](CCc1ccc(C(F)(F)F)c(Cl)c1)C(=O)O; NPrPhe(4-CF3) = CCCN[C@@H](Cc1ccc(C(F)(F)F)cc1)C(=O)O; NMeGly(cPent) = CN[C@H](C(=O)O)C1CCCC1; Pro(4,4-Me2) = CC1(C)CN[C@H](C(=O)O)C1; X3 = CCC[C@](C)(N[*:1])C(=O)[*:2]; Hyp = O=C(O)[C@@H]1C[C@@H](O)CN1; NMeD = CN[C@@H](CC(=O)O)C(=O)O; NMeL = CN[C@@H](CC(C)C)C(=O)O; NMeNva = CCC[C@H](NC)C(=O)O; Morpholide = C1CN(*)CCO1; NMeA = CN[C@@H](C)C(=O)O; Ac5c = NC1(C(=O)O)CCCC1; Aze = O=C(O)[C@@H]1CCN1; Abu = CC[C@H](N)C(=O)O; Ac4c = NC1(C(=O)O)CCC1; NPrGly = CCCNCC(=O)O; Sar = CNCC(=O)O
What was measured:
[1] = molecular target: GDP-bound NRAS wild-type protein (Homo sapiens, UniProt P01111); test: Binding to NRAS by surface plasmon resonance (SPR), KD and KD ratio to KRAS
In short: (§1)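 Affinity is measured by surface plasmon resonance at 30°C against captured, GDP-loaded RAS carrying a biotinylated Avi tag. Compounds are titrated by single-cycle kinetics, and KD comes from a 1:1 fit.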

HRAS wild-type protein = HRAS wild-type protein (Homo sapiens, UniProt P01112); test: Binding to HRAS by surface plasmon resonance (SPR), KD and KD ratio to KRAS
In short: as §1

[2] = test system: human lung cancer strain NCI-H441; type: cell-based
In short: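 Readout: […] after the ATP-based reagent. Compound: serial dilutions in dimethyl sulfoxide.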

[3] = ratio of KD for GDP-bound NRAS wild-type protein to KD for KRAS
[4] = ratio of KD for HRAS wild-type protein to KD for KRAS
[5] = ratio of KD value for GDP-bound NRAS wild-type protein to KD value for KRAS (SPR)
[6] = ratio of KD value for HRAS wild-type protein to KD value for KRAS (SPR)
[7] = ratio of the KD value with respect to GDP-bound NRAS wild-type protein to the KD value with respect to KRAS
[8] = ratio of the KD value with respect to HRAS wild-type protein to the KD value with respect to KRAS

HRAS wild-type protein, sequence (P01112 whole entry): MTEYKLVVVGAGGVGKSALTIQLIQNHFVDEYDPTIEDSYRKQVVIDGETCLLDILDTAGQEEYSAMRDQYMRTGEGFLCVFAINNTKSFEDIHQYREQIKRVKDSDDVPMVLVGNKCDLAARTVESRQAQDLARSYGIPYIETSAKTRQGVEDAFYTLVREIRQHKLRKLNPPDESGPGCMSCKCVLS
GDP-bound NRAS wild-type protein, sequence (P01111 whole entry): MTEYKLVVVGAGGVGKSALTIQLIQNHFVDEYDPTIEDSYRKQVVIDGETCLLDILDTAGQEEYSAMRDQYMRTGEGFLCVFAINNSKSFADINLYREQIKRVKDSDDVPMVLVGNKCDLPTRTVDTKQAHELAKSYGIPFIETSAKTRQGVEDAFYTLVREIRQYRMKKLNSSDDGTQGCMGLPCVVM

IC50 [2]	SMILES	NRAS /KRAS [1, 3]	HRAS /KRAS (HRAS wild-type protein; [4])	NRAS /KRAS [1, 5]	HRAS /KRAS (HRAS wild-type protein; [6])	NRAS /KRAS [1, 7]	HRAS /KRAS (HRAS wild-type protein; [8])	IC50 ([2]; NCI-H441 cells, 4 days, CellTiter-Glo, read-out: NCl-H441 IC50)
63.4 nM	CC[C@H](C)[C@@H]1NC(=O)[C@H](COC)N(C)C(=O)C[C@@H](C(=O)N2CCOCC2)N(C)C(=O)[C@H](C2CCCC2)N(C)C(=O)C2(CCC2)NC(=O)[C@@H]2C[C@@H](OC)CN2C(=O)[C@H](CCc2cc(F)c(C(F)(F)F)c(F)c2)NC(=O)CN(C)C(=O)[C@H](Cc2ccc(C(F)(F)F)cc2)N2CCCCC[C@@H](C2=O)N(C)C(=O)CN(C)C1=O [PP0837]	B (a compound having 3 or more and less than 10 is denoted as B)	B (a compound having 3 or more and less than 10 is denoted as B)					
84 nM	CCCN1C(=O)CN(C)C(=O)CN(C)C(=O)[C@H](CC)NC(=O)[C@H](CC(C)C)N(C)C(=O)C[C@@H](C(=O)N2CCOCC2)N(C)C(=O)[C@H](C2CCCC2)N(C)C(=O)C2(CCCC2)NC(=O)[C@@H]2CCCN2C(=O)[C@H](CCc2ccc(C(F)(F)F)c(Cl)c2)NC(=O)CN(C)C(=O)[C@@H]1Cc1ccc(C(F)(F)F)cc1 [PP0248] ([NMeL][Abu][Sar][Sar][NPrPhe(4-CF3)][Sar][hPhe(3-Cl-4-CF3)]P[Ac5c][NMeGly(cPent)][NMeD]-Morpholide; lactam N-11)	B (a compound having 3 or more and less than 10 is denoted as B)	B (a compound having 3 or more and less than 10 is denoted as B)					
767 nM	CC[C@H](C)[C@@H]1NC(=O)[C@H](COC)N(C)C(=O)C[C@@H](C(=O)N2CCOCC2)N(C)C(=O)[C@H](C2CCCC2)N(C)C(=O)C2(CCC2)NC(=O)[C@@H]2CCCN2C(=O)[C@H](CCc2cc(F)c(C(F)(F)F)c(F)c2)NC(=O)CN(C)C(=O)[C@H](Cc2ccc(C(F)(F)F)cc2)N2CCCCC[C@@H](C2=O)N(C)C(=O)[C@@H]2CCN2C1=O [PP0865]	B (a compound having 3 or more and less than 10 is denoted as B)	B (a compound having 3 or more and less than 10 is denoted as B)					
20.7 nM	CCO[C@@H]1C[C@H]2C(=O)NC3(CC(C)(C)C3)C(=O)N(C)[C@@H](C3CCCC3)C(=O)N(C)[C@H](CC)CC(=O)N(C)[C@@H](CC3CC3)C(=O)N[C@@H]([C@@H](C)CC)C(=O)N(C)CC(=O)N(C)[C@H]3C/C=C\CCN(C3=O)[C@@H](Cc3ccc(C(F)(F)F)cc3)C(=O)N(C)CC(=O)N[C@@H](CCc3cc(F)c(C(F)(F)F)c(F)c3)C(=O)N2C1 [PP1629]			B (a compound having 3 or more and less than 10 is denoted as B)	B (a compound having 3 or more and less than 10 is denoted as B)			
38.2 nM	CCCN1C(=O)CN(C)C(=O)CN(C)C(=O)[C@H]([C@@H](C)CC)NC(=O)[C@H](CC(C)C)N(C)C(=O)C[C@@H](C(=O)N(C)C)N(C)C(=O)[C@H](C2CCCC2)N(C)C(=O)[C@](C)(CCC)NC(=O)[C@@H]2CCCN2C(=O)[C@H](CCc2cc(F)c(C(F)(F)F)c(F)c2)NC(=O)CN(C)C(=O)[C@@H]1Cc1ccc(C(F)(F)F)cc1 [PP0737] ([NMeL]I[Sar][Sar][NPrPhe(4-CF3)][Sar][hPhe(3,5-F2-4-CF3)]P[X3][NMeGly(cPent)][NMeD]-NMe2; lactam N-11)					B (a compound having 3 or more and less than 10 is denoted as B)	C (A compound having a KD ratio of 0.1 or more and less than 3 is denoted as C)	
15.4 nM	CCC[C@H]1C(=O)N[C@@H]([C@@H](C)CC)C(=O)N(C)CC(=O)N(C)[C@H]2C/C=C\CCN(C2=O)[C@@H](Cc2ccc(C)cc2)C(=O)N(C)CC(=O)N[C@@H](CCc2ccc(C(F)(F)F)c(Cl)c2)C(=O)N2C[C@H](OCC)C[C@H]2C(=O)NC2(CC(C)(C)C2)C(=O)N(C)[C@@H](CC(C)C)C(=O)N(C)[C@H](C(=O)N(C)C)CC(=O)N1C [PP2224]					A (a compound having 10 or more and less than 20 is denoted as A)	A (a compound having 10 or more and less than 20 is denoted as A)	
22 nM	CCC[C@H]1C(=O)N[C@@H]([C@@H](C)CC)C(=O)N(CCC)CC(=O)N(C)CC(=O)N(CCC)[C@@H](Cc2ccc(C(F)(F)F)cc2)C(=O)N(C)CC(=O)N[C@@H](CCc2ccc(C(F)(F)F)c(Cl)c2)C(=O)N2CCC[C@H]2C(=O)NC2(CCC2)C(=O)N(C)[C@@H](C2CCCC2)C(=O)N(C)[C@H](C(=O)N2CCOCC2)CC(=O)N1C [PP1947] ([NMeNva]I[NPrGly][Sar][NPrPhe(4-CF3)][Sar][hPhe(3-Cl-4-CF3)]P[Ac4c][NMeGly(cPent)][NMeD]-Morpholide; lactam N-11)					B (a compound having 3 or more and less than 10 is denoted as B)	B (a compound having 3 or more and less than 10 is denoted as B)	
	CCC[C@H]1C(=O)N[C@@H]([C@@H](C)CC)C(=O)N(C)CC(=O)N(C)[C@H]2C/C=C\CCN(C2=O)[C@@H](Cc2ccc(C(F)(F)F)cc2)C(=O)N(C)CC(=O)N[C@@H](CCc2cc(C)c(C(F)F)c(Cl)c2)C(=O)N2C[C@H](OCC)C[C@H]2C(=O)NC2(CC(C)(C)C2)C(=O)N(C)[C@@H](C2CCCC2)C(=O)N(C)[C@H](C(=O)N(C)C)CC(=O)N1C [PP2866]	A (a compound having 10 or more and less than 20 is denoted as A)	A (a compound having 10 or more and less than 20 is denoted as A)					39.6 nM
1.4 nM	CCCN1C(=O)[C@@H]2CCN2C(=O)CN(C)C(=O)[C@H]([C@@H](C)CC)NC(=O)[C@H](CC(C)C)N(C)C(=O)C[C@@H](C(=O)N(C)C)N(C)C(=O)[C@H](C2CCCC2)N(C)C(=O)C2(CCCC2)NC(=O)[C@@H]2C[C@@H](OCC)CN2C(=O)[C@H](CCc2ccc(C(F)(F)F)c(Cl)c2)NC(=O)CN(C)C(=O)[C@@H]1Cc1ccc(C(F)(F)F)cc1 [PP0444] ([NMeL]I[Sar][Aze][NPrPhe(4-CF3)][Sar][hPhe(3-Cl-4-CF3)][Hyp](Et)[Ac5c][NMeGly(cPent)][NMeD]-NMe2; lactam N-11)					C (A compound having a KD ratio of 0.1 or more and less than 3 is denoted as C)	C (A compound having a KD ratio of 0.1 or more and less than 3 is denoted as C)	
7.9 nM	CCO[C@@H]1C[C@H]2C(=O)NC3(CC(C)(C)C3)C(=O)N(C)[C@@H](C3CCCC3)C(=O)N(C)[C@H](C(=O)N(C)CC)CC(=O)N(C)[C@@H](CC(C)C)C(=O)N[C@@H]([C@@H](C)CC)C(=O)N(C)CC(=O)N(C)[C@H]3C/C=C\CCN(C3=O)[C@@H](Cc3ccc(C(F)F)cc3)C(=O)N(C)CC(=O)N[C@@H](CCc3ccc(C(F)(F)F)c(Cl)c3)C(=O)N2C1 [PP2829]	A (a compound having 10 or more and less than 20 is denoted as A)	A (a compound having 10 or more and less than 20 is denoted as A)					
2.9 nM	CCCN1C(=O)[C@@H]2CCN2C(=O)[C@H](C)N(C)C(=O)[C@H]([C@@H](C)CC)NC(=O)[C@H](CC(C)C)N(C)C(=O)C[C@@H](C(=O)N2CCOCC2)N(C)C(=O)[C@H](C2CCCC2)N(C)C(=O)C2(CCCC2)NC(=O)[C@@H]2CC(C)(C)CN2C(=O)[C@H](CCc2ccc(C(F)(F)F)c(Cl)c2)NC(=O)CN(C)C(=O)[C@@H]1Cc1ccc(C(F)(F)F)cc1 [PP0454] ([NMeL]I[NMeA][Aze][NPrPhe(4-CF3)][Sar][hPhe(3-Cl-4-CF3)][Pro(4,4-Me2)][Ac5c][NMeGly(cPent)][NMeD]-Morpholide; lactam N-11)					C (A compound having a KD ratio of 0.1 or more and less than 3 is denoted as C)	C (A compound having a KD ratio of 0.1 or more and less than 3 is denoted as C)	
9.2 nM	CCC[C@H]1C(=O)N[C@@H]([C@@H](C)CC)C(=O)N(C)CC(=O)N(C)[C@H]2C/C=C\CCN(C2=O)[C@@H](Cc2ccc(C(F)(F)F)cc2)C(=O)N(C)CC(=O)N[C@@H](CCc2cc(F)c(C(F)(F)F)c(F)c2)C(=O)N2C[C@H](OCC)C[C@H]2C(=O)NC2(CC(C)(C)C2)C(=O)N(C)[C@@H](C2CCCC2)C(=O)N(C)[C@H](C(=O)N2CCC2)CC(=O)N1C [PP1943]					A (a compound having 10 or more and less than 20 is denoted as A)	B (a compound having 3 or more and less than 10 is denoted as B)	
12.6 nM	CCO[C@@H]1C[C@H]2C(=O)NC3(CC(C)(C)C3)C(=O)N(C)[C@@H](C3CCCC3)C(=O)N3CCC[C@@H]3CC(=O)N(C)[C@@H](CC)C(=O)N[C@@H]([C@@H](C)CC)C(=O)N(C)CC(=O)N(C)[C@H]3C/C=C\CCN(C3=O)[C@@H](Cc3ccc(C(F)(F)F)cc3)C(=O)N(C)CC(=O)N[C@@H](CCc3cc(F)c(C(F)(F)F)c(F)c3)C(=O)N2C1 [PP1606]			B (a compound having 3 or more and less than 10 is denoted as B)	B (a compound having 3 or more and less than 10 is denoted as B)			

SMILES	IC50 [2]	NRAS /KRAS [1, 3]	HRAS /KRAS (HRAS wild-type protein; [4])	NRAS /KRAS [1, 5]	HRAS /KRAS (HRAS wild-type protein; [6])	NRAS /KRAS [1, 7]	HRAS /KRAS (HRAS wild-type protein; [8])	IC50 ([2]; NCI-H441 cells, 4 days, CellTiter-Glo, read-out: NCl-H441 IC50)
CCO[C@@H]1C[C@H]2C(=O)NC3(CC(C)(C)C3)C(=O)N(C)[C@@H](C3CCCC3)C(=O)N(C)[C@H](C(=O)N3CCCCC3)CC(=O)N(C)[C@H]3CCC/C=C/c4ccc(cc4)C[C@@H](C(=O)N(C)CC(=O)N[C@@H](CCc4cc(F)c(C(F)(F)F)c(F)c4)C(=O)N2C1)N1CC/C=C\C[C@@H](C1=O)N(C)C(=O)CN(C)C(=O)[C@H]([C@@H](C)CC)NC3=O [PP2573]	10.1 nM	A (a compound having 10 or more and less than 20 is denoted as A)	A (a compound having 10 or more and less than 20 is denoted as A)					

Source: patent publication EP4603105A1, “PHARMACEUTICAL COMPOSITION CONTAINING CYCLIC COMPOUND HAVING SELECTIVE KRAS INHIBITORY EFFECT AGAINST HRAS AND NRAS” (CHUGAI SEIYAKU KABUSHIKI KAISHA, priority 2022, dated 2024)
